From US20230393140A1, “BINDING ASSAYS INVOLVING A PLURALITY OF SYNTHETIC COMPOUNDS, TARGETS, AND COUNTER TARGETS” (SRI International, priority 2020, published 2023) come the findings set out here.

SMILES strings stand for the structures. pKd: −log10 of the molar value. Numbered stars: 1 amine (or outer) side, 2 acyl side, 3 side chain; on linkers, the order of the positions; unused ones are H or OH. Square brackets hold non-standard residues; d marks the D form. Peptide text beside a SMILES is read from it. * marks the point of attachment. 5FAM = O=C1OC2(c3ccc(O)cc3Oc3cc(O)ccc32)c2ccc(C(=O)*)cc21; NHCH2C6H4(4-CH2CONH2) = NC(=O)Cc1ccc(CN*)cc1; X1 = O=C(Cc1ccc(CN[*:1])cc1)[*:2]

Data set [1] is classed as in vitro ADME. Particulars: 17 h. How it is done: For human plasma stability, lyophilized human plasma was reconstituted in sterile water for injection, aliquoted into 200 uL aliquots and stored frozen at −80 degrees C. prior to the stability studies. For the stability studies three aliquots per NNP were thawed at room temperature. An additional set of three aliquots for a positive control peptide (Angiotensin I) were also thawed. The incubations for the plasma stability were initiated by mixing 2 uL of a 2 mM stock solution of NNP IL6R-87-8 or positive control in DMSO with the 200 uL thawed plasma aliquot. After briefly vortex-mixing, 50 uL zero-time-point samples were removed, mixed with 50 uL of water and 400 uL of acetonitrile and frozen on dry ice until all time point samples had been collected. The samples were incubated at 37 degrees C. with samples removed and water/acetonitrile added at 1 hour, 3 hours, and 17 hours. Proteins were precipitated by centrifuging the samples at 17,000 G, 4 degrees C. for 1 hour. The supernatants were removed and concentrated in a centrifugal vacuum concentrator (GeneVac Genie II) at 45 degrees C. until the volume had been reduced to around 60 uL. […]

The target of data set [2] is T1, IL-6R (Homo sapiens, UniProt P08887).
T1 construct: purchased Creative Biomart IL6R-584H
T1 sequence (P08887 20-355 limits assumed): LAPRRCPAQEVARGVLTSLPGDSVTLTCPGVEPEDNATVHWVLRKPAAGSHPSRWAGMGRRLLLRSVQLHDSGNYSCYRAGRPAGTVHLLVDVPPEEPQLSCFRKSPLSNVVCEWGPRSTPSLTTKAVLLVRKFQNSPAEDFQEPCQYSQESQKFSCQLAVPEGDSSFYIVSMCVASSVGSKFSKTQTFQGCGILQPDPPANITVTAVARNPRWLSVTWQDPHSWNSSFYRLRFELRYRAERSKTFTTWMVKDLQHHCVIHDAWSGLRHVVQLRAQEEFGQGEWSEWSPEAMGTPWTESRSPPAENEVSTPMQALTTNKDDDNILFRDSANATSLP
In words: MST binding affinity of resynthesized NNP hits to IL-6R. The conditions noted are these: IL-6R; ester versus amide amino acid-PAM bond polymers, library NNP2. How it is done: Hit binding affinity to various targets were determined using Microscale Thermophoresis (MST). MST experiments were performed on a Monolith NT.115pico (NanoTemper Technologies GmbH, Munich, Germany). Measurements were performed at room temperature, in triplicate with incubation periods of 15, 30 and 45 minutes. […] Targets were labeled using Nanotemper Monolith 2nd Generation Protein Labeling Kits. RED-MALEIMIDE (Maleimide-647-dye) labeling kit was used for K-Ras and RED-NHS (NHS-647-dye) labeling kit was used for IL-6, IL-6R, TNFα and ASGPR. The buffer for the ASGPR contained 20 mM HEPES pH 7.4, 150 mM NaCl, 10 mM MgCl2, 2 mM CaCl2, 0.05% Pluronic F-127, and 1 mM DTT; for IL-6 contained 20 mM HEPES pH 7.4, 150 mM KCl, 10 mM MgCl2, and 0.1% Pluronic F-127; for the soluble IL-6 receptor 20 mM HEPES pH 7.4, 150 mM NaCl, 10 mM MgCl2, and 0.05% Tween-20; for K-Ras 20 mM HEPES pH 7.4, 150 mM NaCl, 10 mM MgCl2, 0.05% Tween-20 and 1 mM DTT; for TNFα 10 mM HEPES pH 7.4, 150 mM NaCl, 10 mM MgCl2, 0.05% Polysorbate-20. Triplicate data was analyzed using MO.AffinityAnalysis software (NanoTemper Technologies GmbH).

The target of data set [3] is proteinase K (Parengyodontium album, UniProt P06873). The data set can be described thus: Proteinase K stability assay. The class given is in vitro ADME. The conditions noted are these: 37 degrees C; aliquots at 0, 1.5 and 16 hours; LC-MS. How it is done:
For proteinase K stability, solutions of each tested compound (200 μM) in 10% DMSO and 20 mM Tris HCl at pH 8 were prepared. Proteinase K was added to a final concentration of […] and 100 μM of the tested compound in 5% DMSO and 10 mM Tris HCl at pH 8. The solutions were incubated at 37 degrees C. and aliquots after 0 hours, 1.5 hours and 16 hours were analyzed by LC-MS.

Sequence of proteinase K (P06873 106-384, species assumed): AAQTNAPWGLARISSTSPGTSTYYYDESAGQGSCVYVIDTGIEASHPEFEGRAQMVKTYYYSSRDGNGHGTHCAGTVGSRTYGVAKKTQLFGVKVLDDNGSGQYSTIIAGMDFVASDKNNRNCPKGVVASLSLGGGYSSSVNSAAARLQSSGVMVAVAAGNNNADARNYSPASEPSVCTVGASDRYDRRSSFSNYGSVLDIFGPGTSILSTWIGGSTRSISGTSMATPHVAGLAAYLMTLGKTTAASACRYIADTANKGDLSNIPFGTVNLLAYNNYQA

As to `CC(C)C[C@H](NC(=O)[C@@H](CCCNC(=N)N)NC(=O)[C@@H](C)NC(=O)Cc1ccc(CNC(=O)[C@H](CC(C)C)NC(=O)[C@@H](CCCNC(=N)N)NC(=O)[C@@H](CCC(=O)O)NC(=O)Cc2ccc(CNC(=O)[C@H](C)NC(=O)[C@@H](CCCCN)NC(=O)[C@@H](Cc3ccc(O)cc3)NC(=O)Cc3ccc(CNC(=O)[C@H](C)NC(=O)[C@@H](CCCNC(=N)N)NC(=O)[C@@H](Cc4ccccc4)NC(=O)Cc4ccc(CNC(=O)[C@H](Cc5ccccc5)NC(=O)[C@@H](CO)NC(=O)[C@@H](CCCNC(=N)N)NC(=O)Cc5ccc(CNC(=O)[C@@H](NC(=O)[C@@H](CO)NC(=O)[C@@H](Cc6ccc(O)cc6)NC(=O)Cc6ccc(CNC(=O)[C@H](Cc7ccccc7)NC(=O)[C@H](NC(=O)[C@@H](CC(N)=O)NC(=O)c7ccc8c(c7)C(=O)OC87c8ccc(O)cc8Oc8cc(O)ccc87)C(C)C)cc6)C(C)C)cc5)cc4)cc3)cc2)cc1)C(=O)NCc1ccc(CC(=O)N2CCC[C@@H]2C(=O)N[C@H](CCCNC(=N)N)C(=O)N[C@@H](C)C(=O)NCc2ccc(CC(=O)N[C@H](Cc3ccccc3)C(=O)N[C@H](CCCCN)C(=O)NCC(=O)NCc3ccc(CC(N)=O)cc3)cc2)cc1` [IL6R-87-8, Fluorescein-(D)Asn-(D)Val-(L)Phe-PAM-(D)Tyr-(D)Ser-(L)Val-PAM-(D)Arg-(D)Ser-(L)Phe-PAM-(D)Phe-(D)Arg-(L)Ala-PAM-(D)Tyr-(D)Lys-(L)Ala-PAM-(D)Glu-(D)Arg-(L)Leu-PAM-(D)Ala-(D)Arg- (L)Leu-PAM-(D)Pro-(D)Arg-(L)Ala-PAM-(D)Phe-(D)Lys-Gly-PAM] (5FAM-[dN][dV]F[X1][dY][dS]V[X1][dR][dS]F[X1][dF][dR]A[X1][dY][dK]A[X1][dE][dR]L[X1][dA][dR]L[X1][dP][dR]A[X1][dF][dK]G-{NHCH2C6H4(4-CH2CONH2)}), the “Stability in human plasma” value in data set [1] is “stayed largely intact”. In data set [2], this compound showed a pKd of 9.21. In addition, the “Stability in the presence of proteinase K” value in data set [3] is reported as “minimal degradation”.
